Measurements from patent US20250230165A1, “HETEROCYCLIC COMPOUNDS FOR USE IN THE TREATMENT OF CANCER” (ARTIOS PHARMA LIMITED, priority 2021, published 2025).

The molecules below were run against T1, Human Polθ polymerase domain (aa1820-2590) (Homo sapiens, UniProt O75417) (assay: Polθ Polymerase Domain Kinact/KI Assay (PicoGreen)). Details: 0.8 nM Polθ, 100 nM DNA substrate, kobs vs [I] fit for 2-step covalent inhibitor.
T1 construct: Human Polθ polymerase domain (aa1820-2590) was expressed in E. coli; made in house; host or cells: E. coli
T1 sequence (O75417 1820-2590): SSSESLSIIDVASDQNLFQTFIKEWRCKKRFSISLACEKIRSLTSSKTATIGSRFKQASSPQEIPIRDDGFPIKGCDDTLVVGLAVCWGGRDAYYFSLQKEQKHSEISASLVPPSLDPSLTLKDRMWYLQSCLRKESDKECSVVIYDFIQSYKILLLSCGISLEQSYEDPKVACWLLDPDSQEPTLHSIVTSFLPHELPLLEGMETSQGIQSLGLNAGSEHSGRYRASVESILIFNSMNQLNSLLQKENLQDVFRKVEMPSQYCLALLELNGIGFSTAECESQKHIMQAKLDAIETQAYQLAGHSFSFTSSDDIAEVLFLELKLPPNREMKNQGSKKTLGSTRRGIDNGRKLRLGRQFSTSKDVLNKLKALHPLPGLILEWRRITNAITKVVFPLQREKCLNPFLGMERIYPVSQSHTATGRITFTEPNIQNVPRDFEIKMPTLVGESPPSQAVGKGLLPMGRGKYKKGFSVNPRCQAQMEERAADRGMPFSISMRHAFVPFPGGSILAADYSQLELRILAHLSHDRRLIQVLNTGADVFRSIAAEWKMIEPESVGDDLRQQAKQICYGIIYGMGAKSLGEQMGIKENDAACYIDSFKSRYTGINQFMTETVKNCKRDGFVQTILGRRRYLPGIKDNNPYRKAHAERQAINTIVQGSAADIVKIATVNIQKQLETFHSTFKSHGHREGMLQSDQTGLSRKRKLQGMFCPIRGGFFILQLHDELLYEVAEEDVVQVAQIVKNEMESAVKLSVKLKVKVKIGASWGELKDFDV
Assay type: biochemical
How it was run: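 PicoGreen fluorescence read-out of primer extension; progress curves per inhibitor concentration fitted for kobs, then kobs vs [I] fitted to a two-step covalent model to give Kinact and KI. Conditions: 0.8 nM enzyme, 100 nM DNA substrate, […].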

Structure (SMILES)	Kinact/Kl [µM⁻¹ s⁻¹]
C=CC(=O)N1CC(N(C)CCCN2C[C@H]3CC(=O)N(c4cc(C(F)(F)F)cc(C)n4)[C@@H]3C(=O)N(C)c3cccc(F)c32)C1 [Example 71, (3aR,11aS)-5-(3-((1-acryloylazetidin-3-yl)(methyl)amino)propyl)-6-fluoro-10-methyl-1-(6-methyl-4-(trifluoromethyl)pyridin-2-yl)-1,3a,4,5,10,11a-hexahydro-2H-benzo[b]pyrrolo[2,3-f][1,4]diazocine-2,11(3H)-dione]	0.42
Cc1cc(C(F)(F)F)cc(N2C(=O)C[C@@H]3CN(CCCOC4CN(C(=O)C5=CCCNC5)C4)c4c(C)cccc4N(C)C(=O)[C@H]32)n1 [Example 82, (3aR,11aS)-6,10-dimethyl-1-(6-methyl-4-(trifluoromethyl)pyridin-2-yl)-5-(3-((1-(1,2,5,6-tetrahydropyridine-3-carbonyl)azetidin-3-yl)oxy)propyl)-1,3a,4,5,10,11a-hexahydro-2H-benzo[b]pyrrolo[2,3-f][1,4]diazocine-2,11(3H)-dione]	0.92
Cc1cc(C(F)(F)F)cc(N2C(=O)C[C@@H]3CN(Cc4cn5c(n4)CN(C(=O)/C=C/C(F)F)CC5)c4c(Cl)cccc4N(C)C(=O)[C@H]32)n1 [Example 306, (3aR,11aS)-6-chloro-5-((7-((E)-4,4-difluorobut-2-enoyl)-5,6,7,8-tetrahydroimidazo[1,2-a]pyrazin-2-yl)methyl)-10-methyl-1-(6-methyl-4-(trifluoromethyl)pyridin-2-yl)-1,3a,4,5,10,11a-hexahydro-2H-benzo[b]pyrrolo[2,3-f][1,4]diazocine-2,11(3H)-dione]	1.54
C=C(CN(C)C)C(=O)N1CC(C(F)CCCN2C[C@H]3CC(=O)N(c4cc(C(F)(F)F)cc(C)n4)[C@@H]3C(=O)N(C)c3cccc(Cl)c32)C1 (stereo partly drawn) [Example 300, (3aR,11aS)-6-chloro-5-(4-(1-(2-((dimethylamino)methyl)acryloyl)azetidin-3-yl)-4-fluorobutyl)-10-methyl-1-(6-methyl-4-(trifluoromethyl)pyridin-2-yl)-1,3a,4,5,10,11a-hexahydro-2H-benzo[b]pyrrolo[2,3-f][1,4]diazocine-2,11(3H)-dione]	3.93
C=C(CN1CCN(C)CC1)C(=O)N1CC(CCCCN2C[C@H]3CC(=O)N(c4cc(C(F)(F)F)cc(C)n4)[C@@H]3C(=O)N(C)c3cccc(Cl)c32)C1 [Example 167, (3aR,11aS)-6-chloro-10-methyl-1-(6-methyl-4-(trifluoromethyl)pyridin-2-yl)-5-(4-(1-(2-((4-methylpiperazin-1-yl)methyl)acryloyl)azetidin-3-yl)butyl)-1,3a,4,5,10,11a-hexahydro-2H-benzo[b]pyrrolo[2,3-f][1,4]diazocine-2,11(3H)-dione]	4.66
C=CC(=O)N1CC2(CN(CCN3C[C@H]4CC(=O)N(c5cc(C(F)(F)F)cc(C)n5)[C@@H]4C(=O)N(C)c4cccc(F)c43)C[C@@H](C)N2)C1 [Example 31, (3aR,11aS)-5-(2-((R)-2-acryloyl-6-methyl-2,5,8-triazaspiro[3.5]nonan-8-yl)ethyl)-6-fluoro-10-methyl-1-(6-methyl-4-(trifluoromethyl)pyridin-2-yl)-1,3a,4,5,10, 11a-hexahydro-2H-benzo [b]pyrrolo[2,3-f][1,4] diazocine-2,11(3H)-dione]	1.13
C=CC(=O)N1CC2(C1)[C@H](C)N(CCN1C[C@H]3CC(=O)N(c4cc(C(F)(F)F)cc(C)n4)[C@@H]3C(=O)N(C)c3cccc(F)c31)C[C@H]1COCCN12 (single isomer, unassigned) [Example 8]	2.00
C=CC(=O)N1C[C@H]2CN(CCN3C[C@H]4CC(=O)N(c5cc(C(F)(F)F)cc(C)n5)[C@@H]4C(=O)N(C)c4cccc(F)c43)CCN2C(=O)[C@@H]1C (single isomer, unassigned) [Example 61]	0.50
Cc1cc(C(F)(F)F)cc(N2C(=O)C[C@@H]3CN(Cc4ccc5c(c4)CCN(C(=O)/C=C/CN(C)C)C5)c4c(F)cccc4N(C)C(=O)[C@H]32)n1 [Example 149, (3aR, 11aS)-5-((2-((E)-4-(dimethylamino)but-2-enoyl)-1,2,3,4-tetrahydroisoquinolin-6-yl)methyl)-6-fluoro-10-methyl-1-(6-methyl-4-(trifluoromethyl)pyridin-2-yl)-1,3a,4,5,10,11a-hexahydro-2H-benzo[b]pyrrolo[2,3-f][1,4]diazocine-2,11(3H)-dione]	1.08
C=CC(=O)Nc1ccc(CN2C[C@H]3CC(=O)N(c4cc(C(F)(F)F)cc(C)n4)[C@@H]3C(=O)N(C)c3cccc(Cl)c32)cc1C#N [Example 248, N-(4-(((3aR,11aS)-6-chloro-10-methyl-1-(6-methyl-4-(trifluoromethyl)pyridin-2-yl)-2,11-dioxo-1,2,3,3a,4,10,11,11a-octahydro-5H-benzo[b]pyrrolo[2,3-f][1,4]diazocin-5-yl)methyl)-2-cyanophenyl)acrylamide]	0.81
C=CC(=O)N1CC(N(C)CCCN2C[C@H]3CC(=O)N(c4cc(C(F)(F)F)cc(C)n4)[C@@H]3C(=O)N(C)c3cccc(Cl)c32)C1 [Example 138, (3aR,11aS)-5-(3-((1-acryloylazetidin-3-yl)(methyl)amino)propyl)-6-chloro-10-methyl-1-(6-methyl-4-(trifluoromethyl)pyridin-2-yl)-1,3a,4,5,10,11a-hexahydro-2H-benzo[b]pyrrolo[2,3-f][1,4]diazocine-2,11(3H)-dione]	1.08

Now from value to molecule:

Kinact/Kl [µM⁻¹ s⁻¹]	Structure (SMILES)
1.26	C=CC(=O)N1CC(=O)N2CCN(CCN3C[C@H]4CC(=O)N(c5cc(C(F)(F)F)cc(C)n5)[C@@H]4C(=O)N(C)c4cccc(F)c43)CC2C1 (mixture of isomers) [Example 62b, (3aR,11aS)-5-(2-((S/R)-8-acryloyl-6-oxooctahydro-2H-pyrazino[1,2-a]pyrazin-2-yl)ethyl)-6-fluoro-10-methyl-1-(6-methyl-4-(trifluoromethyl)pyridin-2-yl)-1,3a,4,5,10,11a-hexahydro-2H-benzo[b]pyrrolo[2,3-f][1,4]diazocine-2,11(3H)-dione]
0.27	C=CC(=O)N1C[C@@H]2CN(CCN3C[C@H]4CC(=O)N(c5cc(C(F)(F)F)cc(C)n5)[C@@H]4C(=O)N(C)c4cccc(F)c43)CCN2[C@@H](C)C1 [Example 64b, (3aR,11aS)-5-(2-((6S/R,9aS/R)-8-acryloyl-6-methyloctahydro-2H-pyrazino[1,2-a]pyrazin-2-yl)ethyl)-6-fluoro-10-methyl-1-(6-methyl-4-(trifluoromethyl)pyridin-2-yl)-1,3a,4,5,10,11a-hexahydro-2H-benzo[b]pyrrolo[2,3-f][1,4]diazocine-2,11(3H)-dione]
0.20	C=CC(=O)N1CCCC1c1ccc(CN2C[C@H]3CC(=O)N(c4cc(C(F)(F)F)cc(C)n4)[C@@H]3C(=O)N(C)c3cccc(F)c32)cc1 (single isomer, unassigned) [Example 141a]
0.45	C=CC(=O)N1C[C@@H](F)[C@@H](n2cnc(CN3C[C@H]4CC(=O)N(c5cc(C(F)(F)F)cc(C)n5)[C@@H]4C(=O)N(C)c4cccc(C)c43)c2)C1 (single isomer, unassigned) [Example 326a]
